pIC50: −log10 of the molar value. Where a SMILES comes first, the peptide text is derived from it. Bridges are numbered along the chain shown (N, C = ends). [ ]: non-standard residue; d: D form. Hyp = O=C(O)[C@@H]1C[C@@H](O)CN1

These results are taken from US6872803B1, “Peptides” (Kyowa Hakko Kogyo Co., Ltd., priority 1993, dated 2005).

For data set [1] the following is noted: snake venom peptides, literature; cited from earlier work.
Data set [2] deals with T1, α-chymotrypsin.
T1 construct: purchased Sigma Co
The data set is described as follows: Stability to α-chymotrypsin. Particulars: α-chymotrypsin (Sigma Co.); after 6 hours; α-chymotrypsin 1/10 weight, pH 7.2, 37° C.; read-out: residual amount remaining. The data set is classed as in vitro ADME. The protocol:
(§1) To this were added α-chymotrypsin (Sigma Co.) and N^α-p-tosyl-L-lysine chloromethyl ketone (Sigma Co.) each in an amount of 1/10 weight of compound (2) or (c). […] Absorbance at 220 nm of the eluate was measured.

Data set [3] has as its system prolyl-endopeptidase. The data set can be described thus: in vitro. Particulars: prolyl-endopeptidase (Seikagaku Corporation), pH 7.2.
Procedure: (§2) The resulting mixture was incubated at 37° C. and sampled at intervals. The samples were analyzed by HPLC, using a reversed-phase column (YMC-Pack, ODS-AM, 150×6 mm I.D.). Elution was carried out by linear gradient elution using acetonitrile (0% to 45%) containing 0.1% TFA for 30 minutes. Absorbance at 220 nm of the eluate was measured.
For data set [4], the system named is B16-F10 (mouse melanoma) cells. The data set can be described thus: Cell-adhesion inhibiting activity (adhesion of biotin-labeled cells to mouse fibronectin-coated plate). Type of data set: cell-based. The protocol: To a 96-well flat bottom plate (Sumitomo Bakelite Co.) added were […] (5 μg/ml-culture) of mouse fibronectin (produced by Telios Pharmaceutical Inc.). The plate was allowed to stand for 2 hours at room temperature to coat with mouse fibronectin. Each solution was added to the plate. Next, biotin-labeled B16-F10 (mouse melanoma) cells were added thereto and incubated at 37° C. for 30 minutes. After incubation, the non-adhered cells were removed by suction, and the adhered cells were fixed by 0.25% glutaraldehyde/PBS. The thus-fixed cells were washed with Tween-PBS, and peroxidase-labeled avidin D (Vector Co.) was added thereto and reacted for one hour at room temperature. Thereafter, the cells were washed with Tween-PBS and colored with an ABTS solution. Using NJ-2001 (Nippon Intermed Co.), the absorbance of the colored cells at OD415 was measured by colorimetry.
From the absorbance thus measured, the percentage inhibition of adhesion of the cells was obtained according to the following equation: Percentage Inhibition of Cell Adhesion=[(A−B)/A]×100 • A: absorbance in the absence of the test compound • B: absorbance in the presence of the test compound […]

The target of data set [5] is T2, α-chymotrypsin (Bos taurus, UniProt P00766, DEL14-15/DEL147-148).
T2 construct: purchased Sigma Co
The data set can be described thus: Stability to α-chymotrypsin. Type of data set: in vitro ADME. Particulars: α-chymotrypsin (Sigma Co.) in PBS(−) buffer; α-chymotrypsin 1/10 weight, PBS(−) pH 7.2, 37° C. How it is done: as §1

Data set [6] relates to platelet-rich plasma (PRP). The data set is described as follows: Inhibitory activity against agglutination of platelets stimulated by collagen. The data set is classed as cell-based, white rabbit. Particulars: collagen 10 μg/ml. The protocol:
The blood was collected from the heart of a white rabbit (male weight 2 kg) and mixed with 3.8% sodium citrate (1:9 3.8% sodium citrate/blood). The mixture was centrifuged at 900 r.p.m., and the supernatant was isolated as platelet-rich plasma (PRP). The remaining lower layer was centrifuged at 2500 r.p.m., and the supernatent was isolated as platelet-poor plasma (PPP). These isolates were used in the following test. The percentage of platelet agglutination was measured, using a platelet agglutination measuring device, TE-500 (produced by Elmer Optical Co.). As the standard for platelet agglutination in this test, the percentage of platelet agglutination measured in PRP only was defined as 0%, while that measured in PPP only as 100%. Test solutions each containing a test compound, compound (1) or compound (b) were prepared so as to give a final concentration of 1, 0.3 or 0.1 mM.
Ten μl of re-distilled water (as a control) or the test solution and 200 μl of PRP were put into a cuvet and pre-incubated for 3 minutes, then 10 μl of a collagen that had been prepared to have a final concentration of 10 μg/ml were added thereto, and the percentage of platelet agglutination was measured.

In the next data set the test system is trypsin. The data set can be described thus: in vitro. Particulars: pH 7.2.
The target of data set [7] is T3, BK receptor derived from guinea pig ilea (Cavia porcellus, UniProt O70526).
T3 construct: from tissue; host or cells: guinea pig ileum membrane fraction
T3 sequence (O70526 1-372): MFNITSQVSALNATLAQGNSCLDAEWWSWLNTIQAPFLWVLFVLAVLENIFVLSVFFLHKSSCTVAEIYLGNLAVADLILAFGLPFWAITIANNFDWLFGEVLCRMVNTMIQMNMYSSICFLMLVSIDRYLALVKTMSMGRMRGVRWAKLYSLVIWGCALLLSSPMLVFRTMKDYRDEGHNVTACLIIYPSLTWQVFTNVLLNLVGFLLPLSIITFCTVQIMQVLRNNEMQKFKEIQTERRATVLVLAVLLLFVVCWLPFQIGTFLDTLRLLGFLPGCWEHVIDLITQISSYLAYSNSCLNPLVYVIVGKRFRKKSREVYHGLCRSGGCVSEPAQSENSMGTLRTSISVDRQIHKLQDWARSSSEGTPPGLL
The data set is described as follows: BK-receptor binding inhibiting activity. Particulars: 3H-BK 200 pM. How it is done:
Inhibition of the binding of BK to the BK receptor derived from guinea pig ilea
Using a polytron (Type PT10/35, Kinematica Gmbh), guinea pig ilea was homogenized in buffer (A) (containing 25 mM N-tris(hydroxymethyl)methyl-2-aminoethane-sulfonic acid-NaOH, pH 6.8) at 4° C.
The suspension thus obtained was centrifuged at 4° C. for 10 minutes at 8,000×g, and the supernatant was collected. The supernatant was further centrifuged at 4° C. for 60 minutes at 40,000×g, and the solid was collected. The solid was suspended in buffer (A), and the resulting suspension was centrifuged at 4° C. for 60 minutes at 40,000×g. The resulting solid was suspended to give a protein content of 2 mg/ml to serve as a membrane fraction. […]
^3H-BK (200 pM) was added to each of the membrane fraction solutions, to which non-labeled BK (final concentration: 1 μM) had been added, a test compound had been added or none of these had been added. […] The filter was washed with buffer (C) (comprising 50 mM Tris-HCl, 1 mM EDTA, pH 7.6), and the radioactivity of the filter was measured, using a liquid scintillation counter (LSC3500, Aroka Co.) to determine the amount of the ^3H-BK bound to the receptor and non-specifically bound 3H-BK. […]

Data set [8] has as its target prolyl-endopeptidase (Elizabethkingia meningoseptica, UniProt P27028). The data set is described as follows: in vitro. Particulars: prolyl-endopeptidase in PBS(−) buffer, pH 7.2.
Procedure: as §2

Chain of prolyl-endopeptidase (Elizabethkingia meningoseptica, UniProt P27028) (P27028 21-705): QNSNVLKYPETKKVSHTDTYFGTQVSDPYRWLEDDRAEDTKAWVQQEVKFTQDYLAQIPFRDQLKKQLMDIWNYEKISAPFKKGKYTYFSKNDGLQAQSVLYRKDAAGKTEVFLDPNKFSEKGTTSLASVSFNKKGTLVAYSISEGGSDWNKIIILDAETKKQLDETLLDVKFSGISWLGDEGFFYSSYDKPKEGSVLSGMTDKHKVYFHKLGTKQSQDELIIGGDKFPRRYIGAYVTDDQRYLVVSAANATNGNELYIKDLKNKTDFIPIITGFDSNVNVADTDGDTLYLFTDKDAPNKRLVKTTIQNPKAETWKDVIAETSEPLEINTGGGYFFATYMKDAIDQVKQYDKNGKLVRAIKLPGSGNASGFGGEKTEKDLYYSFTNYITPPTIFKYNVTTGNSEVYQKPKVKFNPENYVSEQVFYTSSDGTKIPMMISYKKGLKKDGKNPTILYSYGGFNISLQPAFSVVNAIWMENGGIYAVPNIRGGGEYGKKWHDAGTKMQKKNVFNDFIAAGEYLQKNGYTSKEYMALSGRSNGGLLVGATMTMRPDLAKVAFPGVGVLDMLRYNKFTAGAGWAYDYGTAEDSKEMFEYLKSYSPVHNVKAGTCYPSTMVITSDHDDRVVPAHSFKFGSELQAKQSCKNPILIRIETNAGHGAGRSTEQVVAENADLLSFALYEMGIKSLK

Consider trigramin, for which, in [1], the “activity, times higher than the activity of Gly-Arg-Gly-Asp-Ser” value (“activity, times higher than the activity” for short) is ~1000 times.

As to `CC(C)[C@H](NC(=O)[C@H](C)NC(=O)[C@H](Cc1ccc(O)cc1)NC(=O)[C@@H](NC(=O)[C@H](Cc1c[nH]c2ccccc12)NC(=O)[C@@H]1CC(=O)NCC(=O)N[C@@H](CC(N)=O)C(=O)N[C@@H](Cc2c[nH]c3ccccc23)C(=O)N[C@@H](Cc2c[nH]cn2)C(=O)NCC(=O)N[C@@H]([C@@H](C)O)C(=O)N[C@@H](C)C(=O)N2CCC[C@H]2C(=O)N1)C(C)C)C(=O)N[C@H](C(=O)NCC(=O)N[C@@H](CCCNC(=N)N)C(=O)NCC(=O)N[C@@H](CC(=O)O)C(=O)N[C@@H](CO)C(=O)N1CCC[C@H]1C(=O)N[C@@H](C)C(N)=O)[C@@H](C)O` [Compound 2] (GNWHGTAPDWVYAVTGRGDSPA-NH2; lactam N-9), the amount remaining at 6 h, 25 μg/ml with α-chymotrypsin [2] is ~95%.

`CSCC[C@H](NC(=O)[C@@H](NC(=O)[C@@H](NC(=O)[C@H](CS)NC(=O)[C@@H]1CCCN1C(=O)[C@H](CC(C)C)NC(=O)CNC(=O)[C@H](CCSC)NC(=O)[C@H](CO)NC(=O)[C@H](Cc1c[nH]c2ccccc12)NC(=O)[C@@H]1CC(=O)NCC(=O)N[C@@H](CC(N)=O)C(=O)N[C@@H](Cc2c[nH]c3ccccc23)C(=O)N[C@@H](Cc2c[nH]cn2)C(=O)NCC(=O)N[C@@H]([C@@H](C)O)C(=O)N[C@@H](C)C(=O)N2CCC[C@H]2C(=O)N1)C(C)C)C(C)C)C(=O)O` [Compound 3] (GNWHGTAPDWSMGLPCVVM-OH; lactam N-9): the fraction remaining at 7 h, 25 μg/ml in the data set with prolyl-endopeptidase [3] was ~60%. As for albolarin, the “activity, times higher than the activity” value in data set [1] was ~1000 times.

Regarding “H-VYAVTGRGDSPA-NH2 [c, H-Val-Tyr-Ala-Val-Thr-Gly-Arg-Gly-Asp-Ser-Pro-Ala-NH2]”, the “cell adhesion-inhibiting activity (comparison, FIG. 2)” value in [4] (same test, compound (2) versus compound (c)) is “almost the same cell adhesion-inhibiting activity”. The half-life at 25 μg/ml on α-chymotrypsin [5] is < 1 h. Consider “H-VTGRGDSPA-OH [Compound b, H-Val-Thr-Gly-Arg-Gly-Asp-Ser-Pro-Ala-OH]”, for which the pIC50 in [4] (B16-F10 cells on mouse fibronectin, 37° C. 30 minutes, read-out: concentration for 50% inhibition of the adhesion of the cells (IC50)) was 2.95. In addition, the entries for the “Percentage of platelet agglutination inhibition (%)” value in [6] (test compound 0.3 mM) and in data set [6] (test compound 1.0 mM) were 20.3% and 61.2%, respectively. Also, the half-life at 25 μg/ml in the data set on trypsin (trypsin (Sigma Co.) in PBS(−) buffer) was < 2 h. As for flavoridin, in [1], the “activity, times higher than the activity” value was ~1000 times.

As for `CC[C@H](C)[C@H](NC(=O)[C@H](CS)NC(=O)[C@@H]1CCCN1C(=O)[C@H](CC(C)C)NC(=O)CNC(=O)[C@H](CCSC)NC(=O)[C@H](CO)NC(=O)[C@H](Cc1c[nH]c2ccccc12)NC(=O)[C@@H]1CC(=O)NCC(=O)N[C@@H](CC(N)=O)C(=O)N[C@@H](Cc2c[nH]c3ccccc23)C(=O)N[C@@H](Cc2c[nH]cn2)C(=O)NCC(=O)N[C@@H]([C@@H](C)O)C(=O)N[C@@H](C)C(=O)N2CCC[C@H]2C(=O)N1)C(=O)N[C@@H](Cc1ccccc1)C(=O)N[C@@H](CCSC)C(=O)O` [Compound 5] (GNWHGTAPDWSMGLPCIFM-OH; lactam N-9), in the data set on prolyl-endopeptidase [3], the share remaining at 1 h, 25 μg/ml was 63%. “H-SMGLPCIFM-OH [Compound f, H-Ser-Met-Gly-Leu-Pro-Cys-Ile-Phe-Met-OH]” registered a share remaining at 1 h, 25 μg/ml in the data set with prolyl-endopeptidase [3] of 12%. With `CC(C)[C@H](NC(=O)[C@H](Cc1c[nH]c2ccccc12)NC(=O)[C@@H]1CC(=O)NCC(=O)N[C@@H](CC(N)=O)C(=O)N[C@@H](Cc2c[nH]c3ccccc23)C(=O)N[C@@H](Cc2c[nH]cn2)C(=O)NCC(=O)N[C@@H]([C@@H](C)O)C(=O)N[C@@H](C)C(=O)N2CCC[C@H]2C(=O)N1)C(=O)N[C@H](C(=O)NCC(=O)N[C@@H](CCCNC(=N)N)C(=O)NCC(=O)N[C@@H](CC(=O)O)C(=O)N[C@@H](CO)C(=O)N1CCC[C@H]1C(=O)N[C@@H](C)C(=O)O)[C@@H](C)O` [Compound 1] (GNWHGTAPDWVTGRGDSPA-OH; lactam N-9), the share remaining at 9 h, 25 μg/ml with trypsin (trypsin (Sigma Co.)) was ~60%. Turning to H-[dR]RP[Hyp]GFS[dF]LR-OH [Compound m], the “Percentage inhibition (%)” value in data set [7] (test compound 10^−7 M) is 68%; in [7] (test compound 10^−8 M) it was 20%. Consider “H-SMGLPCVVM-OH [Compound d, H-Ser-Met-Gly-Leu-Pro-Cys-Val-Val-Met-OH]”, for which, at prolyl-endopeptidase [8], the half-life at 25 μg/ml was < 1 h.

The fraction remaining is the share of the starting amount still present when the sample was taken. In general, half-life refers to the time in which the quantity being followed falls by half.
